The values that follow come from paper PMC13198932, “Pyrazolone-based ERO1 inhibitors in ERO1-driven triple-negative breast cancer and SEPN1-related myopathy: Structure–activity relationship and therapeutic potential” (Pharmacological research, 2025).

The test system of this series is E0771 tumors. As to the kind of experiment: E0771 breast tumor model in syngeneic C57BL/6 J mice (tumor size, VEGFA ELISA, flow cytometry). The following applies: 10 mg/kg i.p. once daily for 10 days. The series is classed as in vivo. On the procedure: A 1:1 mixture of polyethylene glycol 400 (PEG400) (Merck, 8.17003.1000) and Cremophor EL (Sigma, C5135–500G) was used to dissolve I29 at a concentration of 10 mM and served as the vehicle control. Initially, I29 was suspended in PEG400, after which Cremophor EL was added to the solution. The mixture was then heated to 80 °C until the compound was fully dissolved. Both the compound and vehicle were diluted 1:10 in physiological saline immediately prior to administration to mice at a dose of 10 mg/kg.
E0771 cells (1 × 10^6) were injected subcutaneously into both flanks of 12 female C57BL/6 J mice. Once the primary tumors reached a volume of 100–200 mm^3 (palpable), the mice were randomized into two groups and treated with either I29 or vehicle (Cremophor and PEG400). I29 was administered intraperitoneally (i.p.) once daily for 10 consecutive days at a dose of 10 mg/kg. Twenty-four hours after the final injection, the mice were euthanized. Tumors were excised, weighed, and processed for flow cytometry analysis of immune cells and immune checkpoints, including PD-1 and PD-L1, as well as for VEGFA quantification by ELISA.
The procedure was described in detail in [29]. Briefly, primary subcutaneous tumors derived from E0771 cells were minced into small fragments and enzymatically digested with 0.5 mg/mL Collagenase IV (Sigma) and 40 μg/mL DNase I in RPMI 1640 medium for 30 min at 37°C. The resulting cells were resuspended in HBSS containing 0.5 % FBS and incubated at 4°C for 20 min with the following antibodies (BioLegend): CD45 BV650 (clone 104; 0.6/100), CD11b PerCP-Cy5.5 (clone M1/70; 0.3/100), Ly6C BV421 (clone HK1.4; 0.6/100), Ly6G AF700 (clone 1A8; 0.6/100), F4/80 PE-Cy7 (clone BM8; 0.3/100), PD-L1 APC (clone 10 F.9G2; 1/100), CD3 BV605 (clone 145–2C11; 0.6/100), CD4 AF700 (clone GK1.5; 0.6/100), CD8 BV785 (clone 53–6.7; 0.6/100), and PD1 (clone 29.F1A12; 0.6/100). Cell viability was determined using the LIVE/DEAD™ Fixable Near IR Viability Kit (Invitrogen, L34981). Samples were acquired using a Cytoflex LX flow cytometer with CytExpert software, and data were analyzed with Kaluza 2.0 software (Beckman Coulter).
Within the CD45 + leukocyte population, monocytic myeloid-derived suppressor cells (M) MDSCs (CD11b+Ly6G−Ly6Chi), polymorphonuclear granulocytic (PMN−) MDSCs (CD11b+Ly6G+Ly6Clo), and tumor-associated macrophages (TAMs; CD11b+Ly6Clo/−F4/80 +) were identified. Total T lymphocytes (CD3 +) were gated within CD45 + population, and frequencies of CD3 +CD4 + and CD3 +CD8 +T cells subsets were quantified. PD1 expression was evaluated on CD4 + and CD8 + T cells, while PD-L1 expression was assessed on MDSCs and TAMs. Expression levels are reported as geometric mean fluorescence intensity (gMFI).
For VEGFA measurements in E0771 tumors, tumors were weighed, and 50 mg of each was isolated and lysed in PBS containing protease inhibitors but no EDTA. Following homogenization, samples were frozen overnight and then subjected to repeated freeze-thaw cycles the next day. Insoluble debris was removed by high-speed centrifugation, and the supernatant was quantified using the BCA assay. A total of 190 μg of protein was then analyzed using a mouse VEGF Quantikine ELISA Kit (MMV00, R&D Systems).

As to `O=C1/C(=C/c2ccc(-c3ccccc3)o2)C(C(F)(F)F)=NN1c1ccccc1F` [I29], the tolerability result (E0771 tumor-bearing mice) is listed as “well tolerated, with no overt signs of toxicity or weight loss observed”. For the setting “flow cytometry of tumors”, the “PD-1 expression on CD4+ and CD8+ T cells” value is on record as “remained unchanged”; the “PD-L1 expression in monocytic myeloid-derived suppressor cells (M-MDSCs)” value is on record as “statistically significant reduction”. Besides, where the note is “vs vehicle”, the “VEGFA levels in tumors (ELISA)” value is “reduced”, the tumor volume entry was “no significant differences” and the “tumor weight (ex vivo)” value is given as “slight reduction in tumor weight”.
